Patent US4857549A, “Antitumor compounds” (priority 1988, dated 1989)
Where “and” joins values, the source holds several entries; their conditions need not be identical. Equal values may be shown once. Read-outs that look alike come from different tables or passages of the source.

How the values were obtained:
[1] = in vivo; conditions: mouse, ip
[2] = system: B16 melanoma cells (highly metastatic subline, F10); assay: B16 melanoma in vitro cloning (colony forming) assay, 2 hour exposure; format: cell-based; conditions: read-out: IC50: concentration which inhibits cloning efficiency of B16 melanoma cells by 50%
Procedure: Initially, the cytotoxic activity of the Formula (I) and Formula (IA) compounds used in the pharmaceutical compositions and methods of treatment of the instant invention was evaluated in vitro using B16 melanoma cells according to the following assay:
B16 melanoma (highly metastatic subline, F10) are used and maintained as monolayer cultures in Minimal Essential Media (Grand Island Biological Co., Grand Island, N.Y. ) supplemented with 10% calf serum, 1% antibiotics in a 5% CO2 humidified incubator at 37° C. Asynchronous populations of cells are harvested and replated to 5000 cells/plate in sterile 60 mm×15 mm petri plates. Plates are incubated overnight to allow attachment of the cells to the plate. Cells are treated with a Formula (I) or Formula (IA) compound or cisplatin under sterile conditions, allowed to react for 2 hours followed by aspiration of medium. Plates are washed one time with 5 ml of phosphate buffered saline (PBS), followed by the addition of 5 ml of fresh media. Plates are incubated for 5 days at 37° in a CO2 incubator. Viability is measured by the ability of a cell to form a colony of greater than 50 cells. Colonies are fixed with 0.5% crystal violet in 95% ethanol. Plates are dried and counted with a Biotran III Automatic Count Totalizer (New Brunswick Scientific Co., Edison, N.J.). Mean and standard deviation of triplicate samples are determined for each drug concentration. The data are analyzed by plotting the log of the survival fraction (number of colonies in drug treated plates/number of colonies in controls) versus the drug concentration.
^(a) concentration which inhibits cloning efficiency of B16 melanoma
cells by 50% on a 2hour exposure.

[3] = system: M5076 reticulum cell sarcoma; assay: ip M5076 reticulum cell sarcoma assay in mice; conditions: for MTD (maximally tolerated dose): B6D2F1 female mice; for MTD (maximally tolerated dose) / ILS max (maximum increase in lifespan): ip qD × 10; for ILS max (maximum increase in lifespan): ip M5076 sarcoma mice, slash = separate experiments; for activity in the ip M5076 reticulum cell sarcoma assay: in words, based on Tables C and D
Procedure: (§1) Another chemosensitive tumor model is intraperitoneally (ip) implanted M5076 reticulum cell sarcoma in mice. In this system B6D2F1 female mice are inoculated with 0.5 ml of a 10 percent weight:volume (w:v) brei of M5076 prepared from pooled subcutaneous (sc) tumors excised at about 21 days from c57B1/6 donor mice. Drugs are administered ip. Daily treatment is begun 24 hours after implantation and is continued for ten days. The treatment regimen for M5076 is more prolonged than for P388 because of the slower growth rate and longer control survival time of the M5076 tumor.

[4] = system: P388 leukemia; conditions: Table B; for MTD (maximally tolerated dose): B6D2F1 female mice, ip qD × 5
[5] = ip M5076 reticulum cell sarcoma assay in mice; conditions: mouse, in vivo, ip
Procedure: as §1

[6] = system: B16 melanoma; assay: in vivo ip B16 melanoma assay; conditions: Table E, ip qD × 10
Procedure: The cytotoxic activity of several compounds of Formula (I) was evaluated in vivo using B16 melanoma cells according to the following assay:
In this system, groups of eight B6D2F1 mice are inoculated ip with 0.5 ml of a 10% (w:v) brei of B16 melanoma prepared from pooled sc tumors excised at 14.noteq.21 days from C67B1 /6 donor mice. Daily treatment is begun 24 hours after tumor implantation and is continued daily for 10 days. The route of drug administration is ip. The mice are monitored daily for survival for 60 days. Antitumor activity is assessed by prolongation of median survival time.

[7] = system: mammary adenocarcinoma 16/c; assay: sc mammary adenocarcinoma 16/c assay
Procedure: The mammary adenocarcinoma 16/c tumor is implanted sc in C3H mice, and the Formula (I) compound is administered ip on days 1, 5, 9, 13 and 17. Tumors are measured 3 weeks after implantation, and activity is assessed by degree of tumor growth inhibition.

[8] = system: ADJ-PC6 Plasmacytoma; assay: ADJ-PC6 plasmacytoma assay; conditions: in words
Procedure: Tumor cells are carried by serial sc passage in BALB/c female mice and then collected aseptically on ca. Day 21 and minced in Hank's balanced salt solution. The cells are then dispersed by homogenization in a loose-fitting teflon glass homogenizer, and cell concentration is adjusted to 4×10^6 viable ([…]) cells per ml by hemocytometer counts. A total of 0.5 ml (2×10^6 cells) is implanted sc on the right flank of BALB/c female mice in groups of 8. Treatment is given ip on Days 1-10, and tumors are measured in perpendicular diameters with a vernier caliper on Day 18.
^(b) maximally tolerated dose for BALB/c female mice on an ip qD

[9] = Mus musculus, B16, Table AI, Formula (IA)
[10] = Table C, compound 2: seven experiments

## c1ccc(P(CCCP(c2ccccc2)c2ccccc2)c2ccccc2)cc1 [Compound 37, bis(1,3-diphenylphosphino)propane]
[1]
  MTD: 32 mg/kg
[2]; [9]
  IC50: 72 µM

## [Cl][Au][PH](CCC[PH]([Au][Cl])(c1ccccc1)c1ccccc1)(c1ccccc1)c1ccccc1 [Compound 3, μ-[1,3-Bis(Diphenylphosphino)Propane]Bis[Chlorogold(I)]]
[2]; Table A, Formula (I)
  IC50: 2 µM
[3]; Table C
  MTD (maximally tolerated dose): 5 mg/kg
[3]; [10]
  ILS max (maximum increase in lifespan): 69%
[3]
  activity in the ip M5076 reticulum cell sarcoma assay: good activity
[4]
  MTD (maximally tolerated dose): 8 mg/kg

## C(=C/P(c1ccccc1)c1ccccc1)/P(c1ccccc1)c1ccccc1 [Compound 34, cis-bis(1,2-diphenylphosphino)ethylene]
[1]
  MTD: 24 mg/kg
[2]; [9]
  IC50: 25 µM
[3]; Table D
  ILS max (maximum increase in lifespan): 57%
[3]
  activity in the ip M5076 reticulum cell sarcoma assay: good activity
[5]
  MTD: 5 mg/kg

## [Br][Au][PH](CC[PH]([Au][Br])(c1ccccc1)c1ccccc1)(c1ccccc1)c1ccccc1 [Compound 15]
[3]; [10]
  ILS max (maximum increase in lifespan): 69%
[6]; B6D2F1 mice
  MTD (maximally tolerated dose): 13 um/kg
[6]; ip B16 melanoma mice, slash = separate experiments
  ILS (maximum increase in lifespan): 49% and 41%
[7]; Table F, C3H mice, intermittent ip regimen
  MTD (maximally tolerated dose): 26 um/kg
[7]; Table F, sc tumor, ip days 1, 5, 9, 13, 17, slash = separate experiments
  Inhibition (tumor growth inhibition): 79%
[4]; ip P388 leukemia mice, ip days 1-5, slash-separated figures are separate experiments, compound 2: 35 experiments
  ILS (maximum increase in lifespan): 116% and 80%

## CC(CP(c1ccccc1)c1ccccc1)P(c1ccccc1)c1ccccc1 (centres unmarked) [Compound 35, Bis(1,2-diphenylphosphino)propane]
[1]
  MTD: 32 mg/kg
[2]; [9]
  IC50: 50 µM
[3]; Table D
  MTD (maximally tolerated dose): 24 mg/kg
  ILS max (maximum increase in lifespan): 62%

## [Cl][Au][PH](CC[PH]([Au][Cl])(C1CCCCC1)C1CCCCC1)(C1CCCCC1)C1CCCCC1 [Compound 22, μ-[1,2-Bis(Dicyclohexylphosphino)Ethane]Bis[Chlorogold(I)]]
[2]; Table A, Formula (I)
  IC50: 14 µM
[3]; Table C
  MTD (maximally tolerated dose): 8 mg/kg
[3]; [10]
  ILS max (maximum increase in lifespan): 27%
[4]
  MTD (maximally tolerated dose): 16 mg/kg

## C[C@H](CP(c1ccccc1)c1ccccc1)P(c1ccccc1)c1ccccc1 [Compound 36, R-(+)-bis(1,2-diphenylphosphino)propane]
[1]
  MTD: 32 mg/kg
[2]; [9]
  IC50: 50 µM

## c1ccc(P(c2ccccc2)c2ccccc2P(c2ccccc2)c2ccccc2)cc1 [Compound 40, Bis(1,2-Diphenylphosphino)Benzene]
[1]
  MTD: 32 mg/kg
[2]; [9]
  IC50: 28 µM

## [2H]c1c([2H])c([2H])c(P(CCP(c2c([2H])c([2H])c([2H])c([2H])c2[2H])c2c([2H])c([2H])c([2H])c([2H])c2[2H])c2c([2H])c([2H])c([2H])c([2H])c2[2H])c([2H])c1[2H] [Compound 43, 1,2-Ethanediyl-bis[di(phenyl-d5)phosphine]]
[1]
  MTD: 24 mg/kg
[2]; [9]
  IC50: 50 µM

## N.N.[Cl][Pt][Cl] [cisplatin, reference compound]
[8]
  tumor growth inhibition by positive control: complete tumor growth inhibition
[3]; all experiments, active = average ≥25 percent ILS
  activity of positive control in ip M5076: active in all experiments
[7]; in words, generally produced
  inhibition of growth of mammary adenocarcinoma 16/c by positive control: complete inhibition
